The text below walks through data of patent publication US20240141294A1, “CGMP COMPLIANT PRODUCTION AND EXPANSION OF PLASMACYTOID DENDRITIC CELLS FROM HEMATOPOIETIC STEM AND PROGENITOR CELLS” (AARHUS UNIVERSITET, priority 2021, published 2024).

The test system of one test is HSPC-pDCs. Briefly: SR1/IL-3 deprivation: flow cytometry of CD123 and CD303. The test is classed as cell-based, human. As to the method: Priming of HSPC-pDCs was performed as previously described [Laustsen, A., et al 2018]. […] HSPC-pDCs were primed with 250 U/mL IFN-β (PBL Assay Science) and 250 U/mL IFN-γ (Peprotech) or left unprimed. Cells were primed for 24 hours before being phenotypically and functionally characterized.
Flow cytometry was used to immunophenotype pDCs. Briefly, cells were spun down and resuspended in 25 μL TruStain FcBlock (Biolegend) diluted in cold FACS buffer (PBS with 2% FCS and 1 mM EDTA) and incubated cold for 15 minutes. Cells were subsequently stained 25 μL with the following antibodies: APC anti-human Lineage Cocktail (CD3 (UCHT1), CD14 (HCD14), CD16 (3G8), CD19 (HIB19), CD20 (2H7) and CD56 (HCD56), 348801, BioLegend), FITC anti-human CD11c (3.9, 301604, BioLegend), BV421 CD14 (HCD14, 325628, BioLegend), PE CD34 (581, 343506, BioLegend), APC-eFluor780 anti-human CD123 (6H6, 47-1239-42, eBioscience), PE-Cy7 anti-human CD303 (201a, 354214, BioLegend). Cells were stained for 30 min before being washed two times in FACS buffer and finally resuspended in 200 μL FACS Buffer. Fluorescence intensities were measured using the Attune NxT Flow Cytometer equipped with 4 lasers (405 nm, 488 nm, 561 nm, and 638 nm). Data analysis was done using FlowJo (Version 10.8.1, Tree Star, Ashland, OR, USA.

The subject of test [1] is Cord-blood derived CD34+HSPCs. Briefly: SR1/IL-3 deprivation during final 3 days of HSPC-pDC differentiation: cell growth and viability. Format: cell-based, human. As to the method: In addition, 1 μM of the small molecule inhibitor StemRegenin 1 (SR1, […] Technologies), 20 μg/mL streptomycin and 20 U/mL penicillin (Gibco, Life Technologies) and 50 μg/mL of ascorbic acid (Sigma Aldrich) was added. Cells were cultured at 37° C., 95% humidity, and 5% CO2 for 17 days, medium was replenished every 2-4 day. […] Viability and total cell numbers during expansion and differentiation of HSPCs was determined using a TC20 Automated Cell Counter (Bio-Rad).

Structures are written as SMILES.

As to `CC(C)n1cnc2c(NCCc3ccc(O)cc3)nc(-c3csc4ccccc34)nc21` [SR1, StemRegenin 1], the CD303 surface expression result with HSPC-pDCs (SR1 removed from media vs standard condition) was “no apparent difference”. Also, the CD123 surface expression in the test with HSPC-pDCs (SR1 removed from media, standard culturing condition MEI 1938) is listed as 988 (±391) MEI. For the same molecule, the “fold change in number of cells in culture after the 3 days” value in test [1] (named supplement removed day 14-17, standard condition 2.31 (±0.49)) is on record as 2.38 (±0.23). In test [1] (named supplement removed from media day 14-17, standard condition 22.5×10^6 (±2.15×10^6)), the “difference in the number of cells in culture between day 14 and 17” value is reported as 25.3×10^6 (±3.12×10^6) cells.
